Legend:
[1] = tested on: A549 (human lung carcinoma); assay: WST-1 proliferation assay, A549; assay type: cell-based; details: Homo sapiens, A549, 72 h exposure
Protocol: (§1) Compounds were evaluated for their antiproliferative activity using three cultured cell lines: A549 (human lung carcinoma, ATCC, Manassas, VA, USA), SNB-19 (human glioblastoma, DSMZ, German Collection of Microorganisms and Cell Cultures), T-47D (human breast cancer, ATCC, Manassas, VA, USA), and NHDF (normal human dermal fibroblasts, ATCC, Manassas, VA, USA). The cultured cells were kept at 37 °C and 5% CO2. The cells were seeded (1 × 10^4 cells/well/100 μL DMEM supplemented with 10% FCS, streptomycin, and penicillin) using 96-well plates (corning). Cells were counted in a hemocytometer (Burker chamber) using a phase contrast Olympus IX50 microscope equipped with a Sony SSC-DC58 AP camera and an Olympus DP10 digital camera.
(§2) The antiproliferative effect of the compounds exerted on cancer and normal cells was determined using the Cell Proliferation Reagent WST-1 assay (Roche Molecular Biochemicals, Mannheim, Germany). This assay is based on a colorimetric method using the enzymatic ability of viable cells to cause the bright, red-colored stable tetrazolium monosodium salt [2-(4-iodophenyl)-3-(4-nitrophenyl)-5-(2,4-disulfophenyl)–2H-tetra-zolium] to transform into the dark, red-colored soluble formazan. […] An increase in the amount of formazan dye formed correlated with the number of metabolically active cells in the culture. The formazan dye produced by metabolically active cells was quantified by absorbance readings at appropriate wavelengths. The examined cells were exposed to the tested compounds (1 mM DMSO stock) for 72 h at various concentrations (0.1–100 μM). The control was performed in order to eliminate the DMSO effect at the concentration used. Cell cultures were incubated with WST-1 (10 μL) for 1 h. The absorbance of the samples was measured against a background control at 450 nm using a microplate reader with a reference wavelength at 600 nm. The obtained results are expressed as the means of at least two independent experiments performed in triplicate. The antiproliferative activity of the tested compounds was compared to that of cisplatinum. The values of IC50 (a concentration of a compound that is required for 50% inhibition) were calculated from the dose-response relationship with respect to control. The results were reported as the mean (±std) of three separate experiments.

[2] = tested on: methicillin-resistant S. aureus SA 630; assay: MBC, agar aliquot subculture method, MRSA2; assay type: cell-based; details: Staphylococcus aureus
Protocol: (§3) For the above-mentioned strains/isolates, the agar aliquot subculture method was used as a test for bactericidal agents. After the MIC value determination, the inoculum was transferred to CaMH (Oxoid) for staphylococci, BHI (Oxoid) for enterococci, and Middlebrook 7H9 (Difco) for mycobacteria medium using a multipoint inoculator. As indicated above, the plates were incubated on a thermostat at 37 °C for the appropriate time for each micro-organism. The lowest concentration of test compound at which ≤5 colonies were obtained was then evaluated as MBC, corresponding to a 99.9% decrease in CFU relative to the original inoculum.

[3] = tested on: methicillin-resistant S. aureus SA 3202; assay: MIC, microtitration broth method, MRSA1; assay type: cell-based; details: Staphylococcus aureus; 24 h at 37 °C
Protocol: (§4) In vitro antibacterial activity of the synthesized compounds was evaluated against representatives of multidrug-resistant bacteria, three clinical isolates of methicillin-resistant S. aureus: clinical isolates of animal origin, MRSA 63718 (Department of Infectious Diseases and Microbiology, Faculty of Veterinary Medicine, University of Veterinary Sciences Brno, Czech Republic), carrying the mecA gene; and MRSA SA 630 and MRSA SA 3202 [52] (National Institute of Public Health, Prague, Czech Republic), both of human origin. […] Vancomycin- and methicillin-susceptible S. aureus ATCC 29213 and vancomycin-susceptible Enterococcus faecalis ATCC 29212, obtained from the American Type Culture Collection, were used as the reference and quality control strains. Three vanA gene-carrying vancomycin-resistant isolates of E. faecalis (VRE 342B, VRE 368, VRE 725B) were provided by Oravcova et al..
(§5) The minimum inhibitory concentrations (MICs) were evaluated by the microtitration broth method according to the CLSI, with some modifications. The compounds were dissolved in DMSO (Sigma, St. Louis, MO, USA) to obtain a concentration of […] and diluted in a microtitration plate in an appropriate medium, i.e., Cation Adjusted Mueller–Hinton Broth (CaMH, Oxoid, Basingstoke, UK) for staphylococci, and Brain Heart Infusion Broth (BHI, Oxoid) for enterococci, to reach the final concentration of 256–0.125 µg/mL. Microtiter plates were inoculated with test micro-organisms so that the final concentration of bacterial cells was 10^5. […] A drug-free control and a sterility control were included. The plates were incubated for 24 h at 37 °C for staphylococci and enterococci. […] The experiments were repeated three times.

[4] = tested on: Mycobacterium marinum CAMP 5644; assay: MIC, broth dilution micro-method, MM; assay type: cell-based; details: CAMP5644, 504 h, 21 days at 28 °C
[5] = tested on: methicillin-resistant S. aureus SA 3202; assay: MBC, agar aliquot subculture method, MRSA1; assay type: cell-based; details: Staphylococcus aureus
Protocol: as §3

[6] = tested on: vancomycin-resistant E. faecalis VRE 725B; assay: MIC, microtitration broth method, VRE3; assay type: cell-based; details: Enterococcus faecalis, 24 h at 37 °C
Protocol: as §4, §5

[7] = tested on: Enterococcus faecalis ATCC 29213; assay: MIC, microtitration broth method, EF; assay type: cell-based; details: ATCC29213, 24 h at 37 °C
[8] = tested on: Mycobacterium smegmatis ATCC 700084; assay: MIC, broth dilution micro-method, MS; assay type: cell-based; details: Mycolicibacterium smegmatis, ATCC700084, 72 h; 3 days at 37 °C
[9] = tested on: NHDF (normal human dermal fibroblasts); assay: WST-1 proliferation assay, NHDF; assay type: cell-based; details: Homo sapiens, NHDF, normal cells, 72 h exposure
Protocol: as §1, §2

[10] = tested on: vancomycin-resistant E. faecalis VRE 368; assay: MIC, microtitration broth method, VRE2; assay type: cell-based; details: Enterococcus faecalis, 24 h at 37 °C
Protocol: as §4, §5

[11] = tested on: methicillin-resistant S. aureus SA 630; assay: MIC, microtitration broth method, MRSA2; assay type: cell-based; details: Staphylococcus aureus; 24 h at 37 °C
Protocol: as §4, §5

[12] = tested on: methicillin-resistant S. aureus 63718; assay: MBC, agar aliquot subculture method, MRSA3; assay type: cell-based; details: Staphylococcus aureus
Protocol: as §3

[13] = tested on: T-47D (human breast cancer); assay: WST-1 proliferation assay, T47D; assay type: cell-based; details: Homo sapiens, T47D, 72 h exposure
Protocol: as §1, §2

[14] = tested on: SNB-19 (human glioblastoma); assay: WST-1 proliferation assay, SNB-19; assay type: cell-based; details: Homo sapiens, SNB-19, 72 h exposure
Protocol: as §1, §2

[15] = tested on: Mycobacterium smegmatis ATCC 700084; assay: MBC, agar aliquot subculture method, MS; assay type: cell-based; details: Mycolicibacterium smegmatis, ATCC700084
Protocol: as §3

[16] = tested on: Staphylococcus aureus ATCC 29213; assay: MBC, agar aliquot subculture method, SA; assay type: cell-based; details: ATCC29213
Protocol: as §3

[17] = tested on: methicillin-resistant S. aureus 63718; assay: MIC, microtitration broth method, MRSA3; assay type: cell-based; details: Staphylococcus aureus; 24 h at 37 °C
Protocol: as §4, §5

[18] = tested on: Mycobacterium marinum CAMP 5644; assay: MBC, agar aliquot subculture method, MM; assay type: cell-based; details: CAMP5644
Protocol: as §3

[19] = tested on: vancomycin-resistant E. faecalis VRE 342B; assay: MIC, microtitration broth method, VRE1; assay type: cell-based; details: Enterococcus faecalis, 24 h at 37 °C
Protocol: as §4, §5

[20] = tested on: Staphylococcus aureus ATCC 29213; assay: MIC, microtitration broth method, SA; assay type: cell-based; details: ATCC29213, 24 h at 37 °C
Protocol: as §4, §5

[21] = tested on: Mycobacterium smegmatis ATCC 700084; details: 3 days; for Conc.: lowest multiple of MBC with at least 70% inhibition of respiratory activity / Conc.: lowest multiple of MIC with at least 70% inhibition of respiratory activity: MTT; for M. smegmatis Respiration Inhibition: at the concentration (lowest multiple of MIC with at least 70% inhibition)

IC50 [1] [µM]	MIC [3] [µM]	MIC [4] [µM]	MIC [6] [µM]	MIC [7] [µM]	MIC [8] [µM]	MIC [10] [µM]	MIC [11] [µM]	IC50 [13] [µM]	IC50 [14] [µM]	MIC [17] [µM]	MIC [19] [µM]	MIC [20] [µM]	Structure (SMILES)	MBC [2] [µM]	MBC [5] [µM]	IC50 [9] [µM]	MBC [12] [µM]	MBC [15] [µM]	MBC [16] [µM]	MBC [18] [µM]	also measured
6.3 ± 0.4	131	32.7	> 524	> 524	32.7	> 524	131	8.6 ± 0.7	2.5 ± 0.1	65.5	> 524	131	C[n+]1cc2c(c3ccccc31)Nc1ccc(OCc3cn(Cc4ccccc4)nn3)cc1S2 [2d, 5-Methyl-9-(1-benzyl-1H-1,2,3-triazol-4-yl)methoxy-12H-quino [3,4-b][1,4]benzothiazinium chloride]	131	131	> 100	65.5	32.7	65.5	32.7	–
8.4 ± 0.6	65.5	32.7	524	524	32.7	524	65.5	12.5 ± 0.8	3.4 ± 0.3	16.3	524	32.8	C[n+]1cc2c(c3ccccc31)Nc1cc(OCc3cn(Cc4ccccc4)nn3)ccc1S2 [2e, 5-Methyl-10-(1-benzyl-1H-1,2,3-triazol-4-yl)methoxy-12H-quino [3,4-b][1,4]benzothiazinium chloride]	65.5	65.5	56.6 ± 4.2	16.3	32.7	65.5	32.7	–
4.5 ± 0.3	262	65.5	131	262	32.7	262	262	11.8 ± 0.5	8.4 ± 0.7	65.5	524	262	C[n+]1cc2c(c3ccccc31)Nc1ccc(OCc3cn(Cc4ccc([N+](=O)[O-])cc4)nn3)cc1S2 [2g, 5-Methyl-9-[1-(4-nitrobenzyl)-1H-1,2,3-triazol-4-yl]methoxy-12H-quino [3,4-b][1,4]benzothiazinium chloride]	–	262	27.6 ± 0.6	65.5	65.5	262	131	–
14.6 ± 0.6	262	32.7	> 524	> 524	16.3	> 524	262	6.3 ± 0.3	9.3 ± 0.5	131	> 524	131	C[n+]1cc2c(c3ccccc31)Nc1cc(OCc3cn(Cc4ccc([N+](=O)[O-])cc4)nn3)ccc1S2 [2h, 5-Methyl-10-[1-(4-nitrobenzyl)-1H-1,2,3-triazol-4-yl]methoxy-12H-quino [3,4-b][1,4]benzothiazinium chloride]	262	262	> 100	131	16.3	131	32.7	Conc.: lowest multiple of MBC with at least 70% inhibition of respiratory activity [21]: 1× MIC (1× MBC); Conc.: lowest multiple of MIC with at least 70% inhibition of respiratory activity [21]: 1× MIC (1× MBC); viability of M. smegmatis at MIC value ([21]; Mycobacterium smegmatis): less than 70%; M. smegmatis Respiration Inhibition [21]: 81.4%
10.5 ± 0.7	65.5	16.3	524	524	16.3	524	65.5	19.3 ± 1.2	8.8 ± 0.4	32.7	524	65.5	C[n+]1cc2c(c3ccccc31)Nc1ccc(OCc3cn(CSc4ccccc4)nn3)cc1S2 [2j, 5-Methyl-9-(1-(phenylthio)methyl-1H-1,2,3-triazol-4-yl)methoxy-12H-quino [3,4-b][1,4]benzothiazinium chloride]	65.5	65.5	28.7 ± 1.2	32.7	16.3	65.5	16.3	Conc.: lowest multiple of MBC with at least 70% inhibition of respiratory activity [21]: 2× MIC (2× MBC); Conc.: lowest multiple of MIC with at least 70% inhibition of respiratory activity [21]: 2× MIC (2× MBC); M. smegmatis Respiration Inhibition [21]: 87.6%
16.4 ± 0.9	65.5	32.7	524	524	32.7	524	65.5	10.6 ± 0.9	6.1 ± 0.3	16.3	> 524	65.5	C[n+]1cc2c(c3ccccc31)Nc1cc(OCc3cn(CSc4ccccc4)nn3)ccc1S2 [2k, 5-Methyl-10-(1-(phenylthio)methyl-1H-1,2,3-triazol-4-yl)methoxy-12H-quino [3,4-b][1,4] benzothiazinium chloride]	65.5	65.5	> 100	16.3	32.7	65.5	32.7	–

From paper PMC10487436, “Towards Anticancer and Antibacterial Agents: Design and Synthesis of 1,2,3-Triazol-quinobenzothiazine Derivatives” (International Journal of Molecular Sciences, 2023)
